The results in this text go back to patent publication US8809498B2, “Pepstatin A derivatives” (priority 2008, dated 2014).

Type in all cases: biochemical
The target of one experiment is Sap3 of Candida albicans (Candida albicans, UniProt P0CY29). The experiment can be described thus: Inhibition of proteolytic activity of Sap3 (resorufin-marked casein, fluorescence). How it is done: (§1) For this purpose, that inhibitor concentration was determined in vitro at which the proteolytic activity of the enzyme or its velocity of metabolizing a substrate, respectively, was reduced for 50%.
Sequence of Sap3 of Candida albicans (P0CY29 59-398): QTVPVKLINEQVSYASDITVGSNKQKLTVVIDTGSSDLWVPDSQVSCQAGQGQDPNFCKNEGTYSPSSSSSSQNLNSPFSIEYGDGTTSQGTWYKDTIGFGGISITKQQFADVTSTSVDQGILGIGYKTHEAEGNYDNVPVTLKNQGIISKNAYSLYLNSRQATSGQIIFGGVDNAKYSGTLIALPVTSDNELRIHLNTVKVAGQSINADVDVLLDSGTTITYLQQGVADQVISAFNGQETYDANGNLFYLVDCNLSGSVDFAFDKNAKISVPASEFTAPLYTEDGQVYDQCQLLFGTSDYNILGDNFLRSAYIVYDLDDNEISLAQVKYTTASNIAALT
(§2) The proteolytic activity of the tested Saps was determined at the pH optimum of those Saps. Resorufin-marked casein was used as substrate. Proteolysis of casein can be detected by an increase in fluorescence due to released resorufin (a fluorescence marker) by proteolysis.
(§3) Sap1, Sap3 and Sap6 of Candida albicans were independently dissolved in 2-(N-morpholino)ethanesulfonic acid (MES) having a concentration of 10 mmol/l and a pH of 6.5 resulting in enzyme solutions having a Sap concentration of 100 mmol/l. After one hour incubation at room temperature, 80 μl of a substrate solution comprising resorufin-marked casein in a sodium citrate buffer having a concentration of 500 mmol/l and a pH of 3.5 (in case of Sap3), 4.5 (in case of Sap1) and 5.0 (in case of Sap6) were added to 20 μl of enzyme solution. The resulting Sap concentration was 5 nmol/l. The resulting casein concentration was chosen such that the Saps could work in excess of substrate. Different Sap inhibitors were added, resulting in a final inhibitor concentration of 1 nmol/1, 2 nmol/1, 5 nmol/1, 10 nmol/l, nmol/l or 50 nmol/l in each case. One enzyme-substrate sample was left without addition of inhibitor. All experiments were performed in triplicate.
(§4) The mixture of enzyme and substrate or of enzyme, substrate and inhibitor was incubated at 37° C. under agitation at 300 rpm (rounds per minute) for 60 min in each case. Afterwards, 20 μl of a trichloroacetic acid solution (30%, w/v) were added. The mixture was placed on ice for 5 minutes and centrifuged afterwards for 3 min at 6000 rpm. The supernatant was removed.
(§5) To carry out fluorescence measurements, 100 μl of the supernatant were mixed with 100 μl Tris-HCl (trishydroxymethylaminomethane-HCl) having a concentration of 1 mol/l and a pH of 10.0. The fluorescence of this mixture was measured directly after adding Tris-HCl using an excitation wavelength of 530 nm and an emission wavelength of 590 nm on a CytoFluor 2350 apparatus (Millipore, Bedford, Mass., USA), wherein sensitivity was set to 2 and bandwidth was set to 7.
(§6) The average of three independent fluorescence measurements was calculated. The fluorescence of enzyme without inhibitor (i.e. inhibitor concentration of 0 nmol/l) was set to 100% enzyme activity. The activity of inhibited enzyme was calculated accordingly from the fluorescence of inhibited enzyme with respect to fluorescence of enzyme without inhibitor. Finally, the enzyme activity was plotted against the inhibitor concentration and the IC50 value was determined.

For another experiment, the target named is Sap1 of Candida albicans (Candida albicans, UniProt P0CY27). The experiment can be described thus: Inhibition of proteolytic activity of Sap1 (resorufin-marked casein, fluorescence). The settings on record: for effectiveness against Sap1 compared with pepstatin A: versus pepstatin A. As for the experimental part: as §1, §2, §3, §4, §5, §6
Sequence of Sap1 of Candida albicans (P0CY27 51-391): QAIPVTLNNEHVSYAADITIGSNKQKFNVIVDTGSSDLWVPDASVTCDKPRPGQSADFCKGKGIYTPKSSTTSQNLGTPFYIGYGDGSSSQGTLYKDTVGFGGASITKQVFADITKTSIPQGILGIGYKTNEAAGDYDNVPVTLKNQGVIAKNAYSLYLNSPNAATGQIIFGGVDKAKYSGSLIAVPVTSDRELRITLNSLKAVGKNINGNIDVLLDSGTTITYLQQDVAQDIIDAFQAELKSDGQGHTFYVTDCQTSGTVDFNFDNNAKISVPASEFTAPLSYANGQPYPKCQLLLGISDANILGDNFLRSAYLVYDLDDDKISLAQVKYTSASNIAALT
A further experiment addresses Sap6 of Candida albicans (Candida albicans, UniProt Q5AC08). Kind of experiment: Inhibition of proteolytic activity of Sap6 (resorufin-marked casein, fluorescence). The settings on record: for effect on Sap 6: versus pepstatin A. How it is done: as §1, §2, §3, §4, §5, §6

Starred links: 1 amine or outer side, 2 acyl side, 3 side chain; linkers in the order of their positions; H or OH if unused. Non-standard residues stand in square brackets, D forms with d. Residues, ends and D or L forms follow the SMILES beside them. *: point of attachment. Abu(4,4,4-F3) = N[C@@H](CC(F)(F)F)C(=O)O; Phe(4-F) = N[C@@H](Cc1ccc(F)cc1)C(=O)O; Phe(4-Me) = Cc1ccc(C[C@H](N)C(=O)O)cc1; X1 = CC(F)(F)C[C@H](N[*:1])C(=O)[*:2]; Sta = CC(C)C[C@H](N)[C@@H](O)CC(=O)O; Isovaleryl = CC(C)CC(=O)*; Orn = NCCC[C@H](N)C(=O)O; Dab = NCC[C@H](N)C(=O)O; Abu = CC[C@H](N)C(=O)O

Sequence of Sap6 of Candida albicans (Q5AC08 77-418): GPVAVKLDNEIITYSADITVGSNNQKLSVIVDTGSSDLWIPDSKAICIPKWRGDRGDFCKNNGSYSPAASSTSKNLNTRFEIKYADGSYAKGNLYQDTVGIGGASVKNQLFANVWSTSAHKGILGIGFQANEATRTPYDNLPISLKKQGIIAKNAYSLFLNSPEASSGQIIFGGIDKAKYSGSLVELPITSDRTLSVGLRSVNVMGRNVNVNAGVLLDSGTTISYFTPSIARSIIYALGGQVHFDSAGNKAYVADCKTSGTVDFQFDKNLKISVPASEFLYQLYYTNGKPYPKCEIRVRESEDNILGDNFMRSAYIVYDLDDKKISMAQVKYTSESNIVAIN

The IC50 is the concentration that inhibits the measured activity by half. A high value points to weaker potency. As for `CC(C)CC(=O)N[C@@H](Cc1ccc(O)cc1)C(=O)N[C@H](C(=O)N[C@@H](CC(C)C)[C@@H](O)CC(=O)N[C@@H](C)C(=O)N[C@@H](CC(C)C)[C@@H](O)CC(=O)O)C(C)C` [P3(Tyr)-pepstatin, (N-Iva-Tyr)-Val-Sta-Ala-Sta] (Isovaleryl-YV[Sta]A[Sta]-OH), the IC50 on Sap3 of Candida albicans was below 5 nM. For the same compound, on Sap1 of Candida albicans, the IC50 is below 5 nM and the “effectiveness against Sap1 compared with pepstatin A” value is reported as “more effective against Sap1 than pepstatin A itself”. Further, at Sap6 of Candida albicans, the IC50 was below 5 nM and the “effect on Sap 6” value is listed as “increased effects on Sap 6”.
For the compound `CC(C)CC(=O)N[C@@H](Cc1ccccc1)C(=O)N[C@H](C(=O)N[C@@H](CC(C)C)[C@@H](O)CC(=O)N[C@@H](C)C(=O)N[C@@H](CC(C)C)[C@@H](O)CC(=O)O)C(C)C` [P3(Phe)-pepstatin, (N-Iva-Phe)-Val-Sta-Ala-Sta] (Isovaleryl-FV[Sta]A[Sta]-OH), the IC50 against Sap3 of Candida albicans was below 5 nM; against Sap1 of Candida albicans, around 5 nM; against Sap6 of Candida albicans, around 10 nM. The “effectiveness against Sap1 compared with pepstatin A” value on Sap1 of Candida albicans was “more effective against Sap1 than pepstatin A itself”.
Consider `CC(C)CC(=O)N[C@H](C(=O)N[C@@H](CC(F)(F)F)C(=O)N[C@@H](CC(C)C)[C@@H](O)CC(=O)N[C@@H](C)C(=O)N[C@@H](CC(C)C)[C@@H](O)CC(=O)O)C(C)C` [P2(TfeGly)-pepstatin, (N-Iva-Val)-TfeGly-Sta-Ala-Sta] (Isovaleryl-V[Abu(4,4,4-F3)][Sta]A[Sta]-OH), for which the IC50 against Sap3 of Candida albicans is below 5 nM; on Sap1 of Candida albicans, around 50 nM; at Sap6 of Candida albicans, around 20 nM.
Consider `CC(C)CC(=O)N[C@H](C(=O)N[C@@H](CC(C)C)C(=O)N[C@@H](CC(C)C)[C@@H](O)CC(=O)N[C@@H](C)C(=O)N[C@@H](CC(C)C)[C@@H](O)CC(=O)O)C(C)C` [P2(Leu)-pepstatin, (N-Iva-Val)-Leu-Sta-Ala-Sta, reference compound] (Isovaleryl-VL[Sta]A[Sta]-OH), for which the IC50 on Sap3 of Candida albicans is 100 nM; against Sap1 of Candida albicans, above 500 nM; against Sap6 of Candida albicans, around 200 nM.
On to `CC(C)CC(=O)N[C@@H](Cc1ccc(F)cc1)C(=O)N[C@H](C(=O)N[C@@H](CC(C)C)[C@@H](O)CC(=O)N[C@@H](C)C(=O)N[C@@H](CC(C)C)[C@@H](O)CC(=O)O)C(C)C` [P3(p-FPhe)-pepstatin, (N-Iva-pFPhe)-Val-Sta-Ala-Sta] (Isovaleryl-[Phe(4-F)]V[Sta]A[Sta]-OH), for which the IC50 against Sap3 of Candida albicans was below 5 nM; against Sap1 of Candida albicans, below 5 nM; on Sap6 of Candida albicans, around 10 nM. Also, on Sap1 of Candida albicans, the “effectiveness against Sap1 compared with pepstatin A” value is on record as “more effective against Sap1 than pepstatin A itself”.
On to `Cc1c(O)cccc1C(=O)N[C@@H](CSc1ccccc1)[C@H](O)CN1C[C@H]2CCCC[C@H]2C[C@H]1C(=O)NC(C)(C)C` [Nelfinavir, reference compound], for which the figures for the IC50 against Sap3 of Candida albicans and on Sap1 of Candida albicans were above 312000 nM and around 250000 nM, respectively.
`CC(C)CC(=O)N[C@H](C(=O)N[C@H](C(=O)N[C@@H](CC(C)C)[C@@H](O)CC(=O)N[C@@H](CCN)C(=O)N[C@@H](CC(C)C)[C@@H](O)CC(=O)O)C(C)C)C(C)C` [P1'(Dab)-pepstatin, (N-Iva-Val)-Val-Sta-Dab-Sta] (Isovaleryl-VV[Sta][Dab][Sta]-OH): the figures for the IC50 against Sap3 of Candida albicans, against Sap1 of Candida albicans and against Sap6 of Candida albicans were around 20 nM, around 400 nM and above 500 nM, respectively. For the same compound, the “specificity for Sap3” value on Sap3 of Candida albicans (versus Sap1 and Sap6) is recorded as “very high specificity for Sap3”.
In the case of `CC(C)(C)NC(=O)[C@@H]1C[C@@H]2CCCC[C@@H]2CN1C[C@@H](O)[C@H](Cc1ccccc1)NC(=O)[C@H](CC(N)=O)NC(=O)c1ccc2ccccc2n1` [Saquinavir, reference compound], the IC50 against Sap3 of Candida albicans was around 200000 nM; against Sap1 of Candida albicans, around 50000 nM; against Sap6 of Candida albicans, above 312000 nM.
The like results for `Cc1ccc(C[C@H](NC(=O)CC(C)C)C(=O)N[C@H](C(=O)N[C@@H](CC(C)C)[C@@H](O)CC(=O)N[C@@H](C)C(=O)N[C@@H](CC(C)C)[C@@H](O)CC(=O)O)C(C)C)cc1` [P3(MePhe)-pepstatin, (N-Iva-pMePhe)-Val-Sta-Ala-Sta] (Isovaleryl-[Phe(4-Me)]V[Sta]A[Sta]-OH) were, in that order, around 5 nM, around 10 nM and around 20 nM.
The like results for `CC[C@H](NC(=O)[C@@H](NC(=O)CC(C)C)C(C)C)C(=O)N[C@@H](CC(C)C)[C@@H](O)CC(=O)N[C@@H](C)C(=O)N[C@@H](CC(C)C)[C@@H](O)CC(=O)O` [P2(Abu)-pepstatin, (N-Iva-Val)-Abu-Sta-Ala-Sta, reference compound] (Isovaleryl-V[Abu][Sta]A[Sta]-OH) were, in that order, below 5 nM, around 50 nM and around 20 nM.
As for `CC(C)CC(=O)N[C@H](C(=O)N[C@H](C(=O)N[C@@H](CC(C)C)[C@@H](O)CC(=O)N[C@@H](CCCCN)C(=O)N[C@@H](CC(C)C)[C@@H](O)CC(=O)O)C(C)C)C(C)C` [P1'(Lys)-pepstatin, (N-Iva-Val)-Val-Sta-Lys-Sta] (Isovaleryl-VV[Sta]K[Sta]-OH), the IC50 is below 5 nM on Sap3 of Candida albicans, below 5 nM against Sap1 of Candida albicans and around 7 nM at Sap6 of Candida albicans. Further, the “concentration equally effective in inhibiting Sap1, fold less than that of amprenavir” value at Sap1 of Candida albicans (versus amprenavir) stood at 1000 fold. The “effectiveness against Sap1 compared with pepstatin A” value at Sap1 of Candida albicans is “more effective against Sap1 than pepstatin A itself”.
Take `COc1ccc(C[C@H](NC(=O)CC(C)C)C(=O)N[C@H](C(=O)N[C@@H](CC(C)C)[C@@H](O)CC(=O)N[C@@H](C)C(=O)N[C@@H](CC(C)C)[C@@H](O)CC(=O)O)C(C)C)cc1` [P3(O—MeTyr)-pepstatin, (N-Iva-OMeTyr)-Val-Sta-Ala-Sta] (Isovaleryl-Y(Me)V[Sta]A[Sta]-OH): the IC50 on Sap3 of Candida albicans is around 5 nM; on Sap1 of Candida albicans it was above 500 nM; against Sap6 of Candida albicans, around 10 nM.
With `CC(C)CC(=O)N[C@H](C(=O)N[C@@H](CC(C)(F)F)C(=O)N[C@@H](CC(C)C)[C@@H](O)CC(=O)N[C@@H](C)C(=O)N[C@@H](CC(C)C)[C@@H](O)CC(=O)O)C(C)C` [P2(DfpGly)-pepstatin, (N-Iva-Val)-DfpGly-Sta-Ala-Sta] (Isovaleryl-V[X1][Sta]A[Sta]-OH), the IC50 is around 5 nM against Sap3 of Candida albicans, around 20 nM at Sap1 of Candida albicans and around 15 nM against Sap6 of Candida albicans.
Consider `CC(C)CC(=O)N[C@H](C(=O)N[C@H](C(=O)N[C@@H](CC(C)C)[C@@H](O)CC(=O)N[C@@H](CCCNC(=N)N)C(=O)N[C@@H](CC(C)C)[C@@H](O)CC(=O)O)C(C)C)C(C)C` [P1'(Arg)-pepstatin, (N-Iva-Val)-Val-Sta-Arg-Sta] (Isovaleryl-VV[Sta]R[Sta]-OH), for which the IC50 against Sap3 of Candida albicans was below 5 nM; on Sap1 of Candida albicans it was around 10 nM; against Sap6 of Candida albicans, below 5 nM. Moreover, the “effect on Sap 6” value at Sap6 of Candida albicans is “increased effects on Sap 6”.
Regarding `CC(C)CC(=O)N[C@@H](CC(C)C)C(=O)N[C@H](C(=O)N[C@@H](CC(C)C)[C@@H](O)CC(=O)N[C@@H](C)C(=O)N[C@@H](CC(C)C)[C@@H](O)CC(=O)O)C(C)C` [P3(Leu)-pepstatin, (N-Iva-Leu)-Val-Sta-Ala-Sta, reference compound] (Isovaleryl-LV[Sta]A[Sta]-OH), the IC50 was below 5 nM at Sap3 of Candida albicans, above 500 nM against Sap1 of Candida albicans and above 500 nM against Sap6 of Candida albicans.
In the case of `CC(C)CC(=O)N[C@H](C(=O)N[C@H](C(=O)N[C@@H](CC(C)C)[C@@H](O)CC(=O)N[C@@H](CCCN)C(=O)N[C@@H](CC(C)C)[C@@H](O)CC(=O)O)C(C)C)C(C)C` [P1'(Orn)-pepstatin, (N-Iva-Val)-Val-Sta-Orn-Sta] (Isovaleryl-VV[Sta][Orn][Sta]-OH), the IC50 on Sap3 of Candida albicans was around 15 nM; against Sap1 of Candida albicans it was around 20 nM; against Sap6 of Candida albicans, around 30 nM.
